Consider twelve molecules from patent US12303509B2, “Compounds for the treatment of BRAF-associated diseases and disorders” (Pfizer Inc., priority 2020, dated 2025).

For data set [1], the target named is full-length FLAG-tagged B-Raf(V600E) (Homo sapiens (Human), UniProt P15056, V600E). Put plainly: BRAF V600E enzyme assay (TR-FRET competitive displacement). It counts as binding. The settings on record: averaged IC50; TR-FRET tracer displacement, 60 min. Put shortly:
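Displacement of 50 nM Tracer 1710 from 5 nM full-length N-terminally FLAG-tagged B-Raf(V600E), detected by TR-FRET with 0.5 nM Eu anti-FLAG antibody, in 25 mM HEPES pH 7.4, 10 mM MgCl2, 2% DMSO; 60 min at ~22 °C. Compounds 11-point, 3-fold from 10 μM; IC50 from 4-parameter fit at 50 POC.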
A general note: TR-FRET usually uses a lanthanide donor and a delayed reading to cut background.

For another data set, the system named is A375 cells. Kind of data set: Cellular phospho-ERK inhibition assay in A375 cells. It counts as cell-based. The settings on record: Homo sapiens, A-375, A375 cells (head prints A357), 2 hours treatment, read-out: A357 cell IC50. The essentials: (§1)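 A375 (DMEM) or H1755 (RPMI) cells in 10% FBS treated 2 h at 37 °C with 9-point series, 66 pM–10 μM, 0.25% DMSO. Phospho-ERK1/2 (Thr202/Tyr204) measured by In Cell Western, normalised to GAPDH and to DMSO and 10 μM binimetinib controls; IC50 by 4-parameter fit.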

The test system of another data set is H1755 cells. Put plainly: Cellular phospho-ERK inhibition assay in H1755 cells. The settings on record: Homo sapiens, NCI-H1755, 2 hours treatment, read-out: H1755 Cell IC50. The class given is cell-based. Put shortly: as §1
Data set [2] can be described thus: MDR1 LLC-PK1 and BCRP MDCKII permeability assay: permeability coefficient (Papp). The class given is in vitro ADME. An excerpt: (§2) Final organic concentration in the assay was 1%.
A further data set has as its target P-gp (MDR1) (Homo sapiens (Human), UniProt P08183). Put plainly: MDR1 LLC-PK1 permeability assay: efflux ratio. The settings on record: pig. The class given is in vitro ADME.
Excerpt: as §2

Another data set addresses BCRP (Homo sapiens (Human), UniProt Q9UNQ0). Kind of data set: BCRP MDCKII permeability assay: efflux ratio. It counts as in vitro ADME. The settings on record: dog.
Data set [3] in a line: PK (free brain-to-free plasma ratio) (mouse). The class given is in vivo. The settings on record: male CD-1 mice, oral gavage 10 mg/kg, unbound brain-to-unbound plasma, read-out: B/P ratio (free). On the procedure: The ability of representative compounds to penetrate the BBB in mice was determined by evaluating the unbound brain-to-unbound plasma (also referred to as free brain-to-free plasma) concentration ratio in male CD-1 mice.
Brain compound levels were generated from oral mouse PK dosing with typical sampling times of 2, 4, 8, 12 and 24 hours post oral gavage dosing at 10 mg/kg. Brain samples were stored at −20±5° C. prior to analysis. Concentrations of test compound in mouse brain homogenate were determined by liquid chromatography tandem mass spectrometry (LC-MS/MS) following protein precipitation with acetonitrile. A 12-point calibration curve, ranging from 0.5 to 10,000 ng/mL, was prepared in duplicate. A solution of 400 μg/mL of test compound in dimethyl sulfoxide (DMSO) was serially diluted (3-fold) in 100% DMSO, and then 2.5 μL of each standard solution was added to 100 μL of naïve male CD-1 mice brain homogenate. To mimic the extraction in the standard curve, 2.5 μL of DMSO was added to all test samples. Both calibration and test brain homogenate samples were spiked with 10 μL of an IS (1 μg/mL of a structural analog). Brain homogenate was generated by adding 0.75 mL of 4:1 water:MeOH to each brain sample followed by homogenization for 1 minute with bead beater tubes a 6 m/s using an MP Fast Prep-24®. Proteins were precipitated from 100 μL of brain homogenate sample by the addition of 300 μL of acetonitrile. Samples were vortex-mixed for 5 minutes and spun in an Allegra X-12R centrifuge (Beckman Coulter, Fullerton, CA; SX4750A rotor) for 15 min at approximately 1,500×g at 4° C. A 100 μL aliquot of each supernatant was transferred via a 550 μL Personal Pipettor (Apricot Designs, Monrovia, CA) to 96-well plates and diluted 1:1 with HPLC grade water. The resulting plates were sealed with aluminum for LC-MS/MS analysis.
Brain-to-plasma ratios were calculated using the concentration of compound measured in the brain divided by the concentration of compound measured in the plasma. Brain-to-plasma ratios were always generated from a single animal and time point. Free brain-to-free plasma ratios were calculated by multiplying the brain-to-plasma ratio by the in vitro brain homogenate free fraction divided by the in vitro plasma free fraction using the following equation: (B/P)*(Bfu/Pfu). Table C provides the free brain-to-free plasma ratios of compounds disclosed herein.

Structures are written as SMILES. pIC50: −log10 of the molar value. Structures can show the parent of a compound that is named as a salt.

Sequence of P-gp (MDR1) (P08183 whole entry, species assumed): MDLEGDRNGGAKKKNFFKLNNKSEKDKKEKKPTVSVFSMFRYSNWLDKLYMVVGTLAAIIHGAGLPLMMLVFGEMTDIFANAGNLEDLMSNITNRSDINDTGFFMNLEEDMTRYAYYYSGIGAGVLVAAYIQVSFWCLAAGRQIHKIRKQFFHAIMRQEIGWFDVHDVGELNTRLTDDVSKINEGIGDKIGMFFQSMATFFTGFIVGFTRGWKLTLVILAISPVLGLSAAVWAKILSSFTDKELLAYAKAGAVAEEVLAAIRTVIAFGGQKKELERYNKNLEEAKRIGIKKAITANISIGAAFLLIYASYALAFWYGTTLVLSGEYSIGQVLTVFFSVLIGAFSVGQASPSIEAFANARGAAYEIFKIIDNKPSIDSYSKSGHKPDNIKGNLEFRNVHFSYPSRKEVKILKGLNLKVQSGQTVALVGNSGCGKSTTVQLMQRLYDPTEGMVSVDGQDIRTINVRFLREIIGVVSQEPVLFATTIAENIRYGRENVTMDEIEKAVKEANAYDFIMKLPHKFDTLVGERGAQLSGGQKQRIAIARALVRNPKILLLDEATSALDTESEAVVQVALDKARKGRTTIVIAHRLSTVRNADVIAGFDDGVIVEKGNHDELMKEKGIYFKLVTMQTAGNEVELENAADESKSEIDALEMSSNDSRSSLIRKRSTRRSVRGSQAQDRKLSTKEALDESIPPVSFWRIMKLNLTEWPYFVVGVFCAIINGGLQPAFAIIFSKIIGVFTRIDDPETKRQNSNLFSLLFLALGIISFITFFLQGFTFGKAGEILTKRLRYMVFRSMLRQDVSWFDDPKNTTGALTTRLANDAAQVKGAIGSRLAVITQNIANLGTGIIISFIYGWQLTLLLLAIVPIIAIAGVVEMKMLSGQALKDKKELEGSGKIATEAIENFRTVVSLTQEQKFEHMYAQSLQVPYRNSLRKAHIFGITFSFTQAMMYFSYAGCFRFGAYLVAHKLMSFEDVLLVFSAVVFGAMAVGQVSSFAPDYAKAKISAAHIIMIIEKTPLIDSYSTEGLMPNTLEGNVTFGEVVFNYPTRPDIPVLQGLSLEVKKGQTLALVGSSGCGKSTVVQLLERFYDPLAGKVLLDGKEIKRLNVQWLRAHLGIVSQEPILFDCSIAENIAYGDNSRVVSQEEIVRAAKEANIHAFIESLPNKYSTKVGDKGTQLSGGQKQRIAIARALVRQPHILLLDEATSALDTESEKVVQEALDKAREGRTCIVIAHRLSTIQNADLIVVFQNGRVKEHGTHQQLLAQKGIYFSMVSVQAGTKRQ
Sequence of BCRP (Q9UNQ0 whole entry): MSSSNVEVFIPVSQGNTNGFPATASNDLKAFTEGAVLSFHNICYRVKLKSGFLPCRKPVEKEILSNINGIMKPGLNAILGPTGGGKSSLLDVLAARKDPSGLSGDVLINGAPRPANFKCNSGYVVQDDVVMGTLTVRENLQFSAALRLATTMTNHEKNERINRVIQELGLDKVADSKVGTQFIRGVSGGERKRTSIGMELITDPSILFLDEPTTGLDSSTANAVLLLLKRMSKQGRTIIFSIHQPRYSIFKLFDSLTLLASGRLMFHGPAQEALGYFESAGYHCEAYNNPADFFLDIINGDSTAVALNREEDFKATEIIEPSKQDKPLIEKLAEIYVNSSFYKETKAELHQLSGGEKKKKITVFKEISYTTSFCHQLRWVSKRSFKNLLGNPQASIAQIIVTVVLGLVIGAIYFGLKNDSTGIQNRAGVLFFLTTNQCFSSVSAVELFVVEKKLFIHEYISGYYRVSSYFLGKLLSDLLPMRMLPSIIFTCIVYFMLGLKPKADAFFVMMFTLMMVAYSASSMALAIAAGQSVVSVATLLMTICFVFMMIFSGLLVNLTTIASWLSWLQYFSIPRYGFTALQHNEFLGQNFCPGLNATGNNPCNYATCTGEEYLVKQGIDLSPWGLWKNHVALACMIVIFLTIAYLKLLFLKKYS
Sequence of full-length FLAG-tagged B-Raf(V600E) (P15056 whole entry V600E): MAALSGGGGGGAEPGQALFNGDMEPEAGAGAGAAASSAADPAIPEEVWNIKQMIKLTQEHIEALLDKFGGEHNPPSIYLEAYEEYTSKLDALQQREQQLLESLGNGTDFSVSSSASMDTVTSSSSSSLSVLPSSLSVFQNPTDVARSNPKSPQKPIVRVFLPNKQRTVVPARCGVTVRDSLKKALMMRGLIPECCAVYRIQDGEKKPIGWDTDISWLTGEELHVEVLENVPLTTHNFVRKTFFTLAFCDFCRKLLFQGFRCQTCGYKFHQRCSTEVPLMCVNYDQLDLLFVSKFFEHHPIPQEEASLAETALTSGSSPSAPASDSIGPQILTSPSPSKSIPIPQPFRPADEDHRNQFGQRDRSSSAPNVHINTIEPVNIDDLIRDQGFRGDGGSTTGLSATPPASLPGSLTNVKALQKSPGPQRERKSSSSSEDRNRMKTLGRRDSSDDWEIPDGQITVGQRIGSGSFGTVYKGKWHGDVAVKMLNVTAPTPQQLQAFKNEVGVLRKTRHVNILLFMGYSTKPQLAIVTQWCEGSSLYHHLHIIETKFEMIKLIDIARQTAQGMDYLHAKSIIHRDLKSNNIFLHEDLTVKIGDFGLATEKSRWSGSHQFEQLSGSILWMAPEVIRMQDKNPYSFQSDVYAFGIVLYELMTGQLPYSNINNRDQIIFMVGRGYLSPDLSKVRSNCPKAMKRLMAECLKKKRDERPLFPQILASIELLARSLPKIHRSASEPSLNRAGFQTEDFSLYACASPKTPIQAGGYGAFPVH

Broadly, the pIC50 is the IC50 on a negative log10 scale, so that one unit is a factor of ten. The Papp is the rate of passage across a membrane or cell layer, normalised by area and donor concentration. A high value points to ready permeation. As a reminder, the efflux ratio is the permeability from basolateral to apical divided by that in the opposite direction, in the common usage. As to `CO[C@@H]1CCN(S(=O)(=O)Nc2ccc(F)c(Nc3ccc4ncn(C)c(=O)c4c3Cl)c2Cl)C1` [Example 6, (R)-N-(2-chloro-4-fluoro-3-((5-chloro-3-methyl-4-oxo-3,4-dihydroquinazolin-6-yl)amino)phenyl)-3-methoxypyrrolidine-1-sulfonamide], the negative-log IC50 (pIC50) in data set [1] is 7.89; with A375 cells, 8.22; in the data set with H1755 cells it was 7.18. In data set [2], this molecule returned a Papp at 2 h, 1 µM of 27 ×10⁻⁶ cm/s. In addition, the efflux ratio at 2 h, 1 µM on P-gp (MDR1) was found to be 1.9; on BCRP, 1.3. Moreover, the Kp in data set [3] was in the range of 0.87 to 1.76.

Regarding `Cn1cnc2ccc(Nc3c(F)ccc(NS(=O)(=O)N4CCCC4)c3Cl)c(F)c2c1=O` [Example 7, N-(2-chloro-4-fluoro-3-((5-fluoro-3-methyl-4-oxo-3,4-dihydroquinazolin-6-yl)amino)phenyl)pyrrolidine-1-sulfonamide trifluoroacetate], the figures for the negative-log IC50 (pIC50) (in data set [1]; in the data set on A375 cells; in the data set with H1755 cells) were 7.92, 8.30 and 7.51, respectively. For the same molecule, the Papp at 2 h, 1 µM in data set [2] turned out to be 29 ×10⁻⁶ cm/s. Also, the efflux ratio at 2 h, 1 µM at P-gp (MDR1) came out at 1.7; on BCRP, 2.2. The Kp in data set [3] fell in the range of 0.37 to 0.61.

`Cn1cnc2ccc(Nc3c(F)ccc(NS(=O)(=O)N4CC5CC4C5)c3Cl)c(Cl)c2c1=O` [Example 9, N-(2-chloro-3-((5-chloro-3-methyl-4-oxo-3,4-dihydroquinazolin-6-yl)amino)-4-fluorophenyl)-2-azabicyclo[2.1.1]hexane-2-sulfonamide trifluoroacetate]: the pIC50 in data set [1] is 8.15; in the data set with A375 cells, 7.85; in the data set with H1755 cells it was 7.07. In data set [2], this molecule had an apparent permeability coefficient (Papp) at 2 h, 1 µM of 29 ×10⁻⁶ cm/s. For the same molecule, the efflux ratio at 2 h, 1 µM at P-gp (MDR1) and at BCRP was 1.1 each time. Besides, the Kp in data set [3] is 0.36 to 0.4.

Take `Cn1cnc2ccc(Nc3c(F)ccc(NS(=O)(=O)N4CCCC4)c3Cl)c(Cl)c2c1=O` [Example 12, N-(2-chloro-3-((5-chloro-3-methyl-4-oxo-3,4-dihydroquinazolin-6-yl)amino)-4-fluorophenyl)pyrrolidine-1-sulfonamide trifluoroacetate]: the pIC50 in data set [1] is 8.15; in the data set with A375 cells it was 8.10; in the data set with H1755 cells, 7.01. In data set [2], this molecule showed a Papp at 2 h, 1 µM of 28 ×10⁻⁶ cm/s. For the same molecule, the efflux ratio at 2 h, 1 µM on P-gp (MDR1) worked out at 1.1; at BCRP, 0.9. Further, the Kp in data set [3] is 0.34 to 0.39.

`Cn1cnc2ccc(Nc3c(F)ccc(NS(=O)(=O)N4CC5CC5C4)c3Cl)c(Cl)c2c1=O` (centres unmarked) [Example 17, N-(2-chloro-3-((5-chloro-3-methyl-4-oxo-3,4-dihydroquinazolin-6-yl)amino)-4-fluorophenyl)-3-azabicyclo[3.1.0]hexane-3-sulfonamide]: the pIC50 in data set [1] is 8.40; in the data set with A375 cells it was 8.15; with H1755 cells it was 7.10. The molecule also showed a Papp at 2 h, 1 µM in data set [2] of 24 ×10⁻⁶ cm/s. Moreover, the results for the efflux ratio at 2 h, 1 µM on P-gp (MDR1) and at BCRP were 1.3 and 1.1, respectively. Also, the Kp in data set [3] lay in the range of 0.61 to 0.64.

Take `Cn1cnc2ccc(Nc3c(F)ccc(NS(=O)(=O)N4CC(COC(F)F)C4)c3Cl)c(Cl)c2c1=O` [Example 138, N-(2-chloro-3-((5-chloro-3-methyl-4-oxo-3,4-dihydroquinazolin-6-yl)amino)-4-fluorophenyl)-3-((difluoromethoxy)methyl)azetidine-1-sulfonamide trifluoroacetate]: the pIC50 in data set [1] is 8.52; in the data set on A375 cells, 8.22; in the data set on H1755 cells, 7.59. In addition, in data set [2], the apparent permeability coefficient (Papp) at 2 h, 1 µM stood at 33 ×10⁻⁶ cm/s. The efflux ratio at 2 h, 1 µM at P-gp (MDR1) and at BCRP was 3.1 throughout.

On to `Cc1c(Nc2c(F)ccc(NS(=O)(=O)N3CC4C(F)C4C3)c2Cl)ccc2ncn(C)c(=O)c12` (centres unmarked) [Example 148, N-(2-chloro-3-((3,5-dimethyl-4-oxo-3,4-dihydroquinazolin-6-yl)amino)-4-fluorophenyl)-6-fluoro-3-azabicyclo[3.1.0]hexane-3-sulfonamide], for which the values for the pIC50 (in data set [1]; with A375 cells; with H1755 cells) were 7.57, 6.37 and 6.07, respectively. The molecule also yielded a Papp at 2 h, 1 µM in data set [2] of 22 ×10⁻⁶ cm/s. In addition, the efflux ratio at 2 h, 1 µM on P-gp (MDR1) was determined as 2.4; on BCRP, 1.8.

As for `Cc1c(Nc2c(F)ccc(NS(=O)(=O)N3CC4CC4(F)C3)c2Cl)ccc2ncn(C)c(=O)c12` (centres unmarked) [Example 149, N-(2-chloro-3-((3,5-dimethyl-4-oxo-3,4-dihydroquinazolin-6-yl)amino)-4-fluorophenyl)-1-fluoro-3-azabicyclo[3.1.0]hexane-3-sulfonamide], the negative logarithm of the IC50 (pIC50) in data set [1] is 8.10; in the data set with A375 cells it was 6.97; with H1755 cells it was 6.47. Besides, the Papp at 2 h, 1 µM in data set [2] came to 25 ×10⁻⁶ cm/s. Further, the efflux ratio at 2 h, 1 µM stood at 1.2 on P-gp (MDR1) and 3.2 on BCRP.

Regarding `Cc1c(Nc2cc(F)cc(NS(=O)(=O)N3CCCC3)c2Cl)ccc2ncn(C)c(=O)c12` [Example 150, N-(2-chloro-3-((3,5-dimethyl-4-oxo-3,4-dihydroquinazolin-6-yl)amino)-5-fluorophenyl)pyrrolidine-1-sulfonamide], the pIC50 was 7.74 in data set [1], 6.47 with A375 cells and 6.26 in the data set on H1755 cells. In data set [2], the apparent permeability coefficient (Papp) at 2 h, 1 µM is 27 ×10⁻⁶ cm/s. Moreover, the efflux ratio at 2 h, 1 µM on P-gp (MDR1) worked out at 1.3; at BCRP it was 1.4.

With `Cc1c(Nc2cc(F)cc(NS(=O)(=O)N3CC[C@@H](F)C3)c2Cl)ccc2ncn(C)c(=O)c12` [Example 151, (R)-N-(2-chloro-3-((3,5-dimethyl-4-oxo-3,4-dihydroquinazolin-6-yl)amino)-5-fluorophenyl)-3-fluoropyrrolidine-1-sulfonamide], the pIC50 was 7.85 in data set [1], 6.55 with A375 cells and 6.27 in the data set on H1755 cells. The molecule further showed an apparent permeability coefficient (Papp) at 2 h, 1 µM in data set [2] of 28 ×10⁻⁶ cm/s. The efflux ratio at 2 h, 1 µM at P-gp (MDR1) amounted to 1.5; on BCRP, 1.8.

For the molecule `CO[C@@H]1CCN(S(=O)(=O)Nc2cc(F)cc(Nc3ccc4ncn(C)c(=O)c4c3C)c2Cl)C1` [Example 152, (R)-N-(2-chloro-3-((3,5-dimethyl-4-oxo-3,4-dihydroquinazolin-6-yl)amino)-5-fluorophenyl)-3-methoxypyrrolidine-1-sulfonamide], the negative logarithm of the IC50 (pIC50) was 7.54 in data set [1], 6.52 in the data set on A375 cells and 6.48 in the data set with H1755 cells. The molecule further displayed an apparent permeability coefficient (Papp) at 2 h, 1 µM in data set [2] of 37 ×10⁻⁶ cm/s. Also, the efflux ratio at 2 h, 1 µM is 1.3 on P-gp (MDR1) and 1.4 on BCRP.

In the case of `Cc1c(Nc2cc(F)cc(NS(=O)(=O)N3CCCC3)c2F)ccc2ncn(C)c(=O)c12` [Example 154, N-(3-((3,5-dimethyl-4-oxo-3,4-dihydroquinazolin-6-yl)amino)-2,5-difluorophenyl)pyrrolidine-1-sulfonamide], the results for the pIC50 (in data set [1]; with A375 cells; in the data set with H1755 cells) were 7.55, 6.39 and 6.06, respectively. The same molecule came in with an apparent permeability (Papp) at 2 h, 1 µM in data set [2] of 26 ×10⁻⁶ cm/s. Also, the efflux ratio at 2 h, 1 µM on P-gp (MDR1) stood at 1.4; on BCRP, 1.3.
